The values below come from patent publication US7625926B2, “P-glycoprotein inhibitor, method for preparing the same and pharmaceutical composition comprising the same” (Hanmi Pharm. Co., Ltd, priority 2003, dated 2009).

Structures are written as SMILES.

The test system of this assay is MCF-7/Dox cell, which is MCF-7 expressing p-glycoprotein. To be noted: enhancement of anticancer activity of paclitaxel against MCF7/Dox; ED50 of paclitaxel alone / ED50 with 50 nM test compound.
Description: The cells were subcultured in 5% FBS (fetal bovine serum)/RPMI1640 medium supplemented with glutamine 2 mmol, sodium bicarbonate 3.7 g/L and gentamicin 10 mg/L at 37° C. in 5% CO2 incubator under 100% humidity, and collected using a 0.25% trypsin solution containing 3 mM 1,2-cyclohenxandiamine tetraacetic acid.
The collected cells were plated on a 96 well flat-bottomed plate at a density of 2×10^3 cells/well, and incubated in the same medium for 24 hours. Paclitaxel, an anticancer agent, was diluted with the same medium to obtain 10^−11˜10^−6 M test solutions. […] After incubating for 72 hours, the culture medium was removed, each well was treated with 10% trichloroacetic acid for 1 hour to fix the cells, washed with water, and dried at room temperature. After adding a dyeing solution containing 1% acetic acid with 0.4% SRB (sulforhodamine B) thereto, the wells were kept at room temperature for 30 min, and washed with 1% acetic acid to remove remaining SRB. […] Also, the enhancement of the anticancer activity of paclitaxel against MCF7/Dox (resistant cancer cells) was measured by determining ED^PAC50/ED50, wherein ED^PAC50 is the value determined for the case of paclitaxel alone.
On to `COc1cc2c(cc1OC)CN(CCc1ccc(-n3nnc(-c4cc(OC)c(OC)cc4NC(=O)c4ccc5ccccc5n4)n3)cc1)CC2` [Example 2, quinoline-2-carboxylic acid [2-(2-{4-[2-(6,7-dimethoxy-3,4-dihydro-1H-isoquinolin-2-yl)-ethyl]-phenyl}-2H-tetrazol-5-yl)-4,5-dimethoxy-phenyl]-amide], for which the “ED50^PAC/ED50” value is recorded as 2.7.

As for `COc1cc2c(cc1OC)CN(CCc1ccc(-n3nnc(-c4cc(OC)c(OC)cc4NC(=O)c4cc5ccccc5cn4)n3)cc1)CC2` [Example 3, isoquinoline-3-carboxylic acid [2-(2-{4-[2-(6,7-dimethoxy-3,4-dihydro-1H-isoquinolin-2-yl)-ethyl]-phenyl}-2H-tetrazol-5-yl)-4,5-dimethoxy-phenyl]-amide], the “ED50^PAC/ED50” value stood at 3.5.

On to `COc1cc2c(cc1OC)CN(CCc1ccc(-n3nnc(-c4cc(OC)c(OC)cc4NC(=O)c4cccc5cccnc45)n3)cc1)CC2` [Example 4, quinoline-8-carboxylic acid [2-(2-{4-[2-(6,7-dimethoxy-3,4-dihydro-1H-isoquinolin-2-yl)-ethyl]-phenyl}-2H-tetrazol-5-yl)-4,5-dimethoxy-phenyl]-amide], for which the “ED50^PAC/ED50” value worked out at 4.3.

`COc1cc2c(cc1OC)CN(CCc1ccc(-n3nnc(-c4cc(OC)c(OC)cc4NC(=O)c4nccc5ccccc45)n3)cc1)CC2` [Example 5, isoquinoline-1-carboxylic acid [2-(2-{4-[2-(6,7-dimethoxy-3,4-dihydro-1H-isoquinolin-2-yl)-ethyl]-phenyl}-2H-tetrazol-5-yl)-4,5-dimethoxy-phenyl]-amide]: the “ED50^PAC/ED50” value is 1.8.

`COc1cc2c(cc1OC)CN(CCc1ccc(-n3nnc(-c4cc(OC)c(OC)cc4NC(=O)c4ccnc5ccccc45)n3)cc1)CC2` [Example 6, quinoline-4-carboxylic acid [2-(2-{4-[2-(6,7-dimethoxy-3,4-dihydro-1H-isoquinolin-2-yl)-ethyl]-phenyl}-2H-tetrazol-5-yl)-4,5-dimethoxy-phenyl]-amide]: the “ED50^PAC/ED50” value was found to be 3.3.

In the case of `COc1cc2c(cc1OC)CN(CCc1ccc(-n3nnc(-c4cc(OC)c(OC)cc4NC(=O)c4cc(OC)c5ccccc5n4)n3)cc1)CC2` [Example 7, 4-methoxy-quinoline-2-carboxylic acid [2-(2-{4-[2-(6,7-dimethoxy-3,4-dihydro-1H-isoquinolin-2-yl)-ethyl]-phenyl}-2H-tetrazol-5-yl)-4,5-methoxy-phenyl]-amide], the “ED50^PAC/ED50” value came to 3.3.

Turning to `COc1cc2c(cc1OC)CN(CCc1ccc(-n3nnc(-c4cc(OC)c(OC)cc4NC(=O)c4cnc5ccccc5n4)n3)cc1)CC2` [Example 8, quinoxaline-2-carboxylic acid [2-(2-{4-[2-(6,7-dimethoxy-3,4-dihydro-1H-isoquinolin-2-yl)-ethyl]-phenyl}-2H-tetrazol-5-yl)-4,5-dimethoxy-phenyl]-amide], the “ED50^PAC/ED50” value came out at 22.0.

As for `COc1cc2c(cc1OC)CN(CCc1ccc(-n3nnc(-c4cc(OC)c(OC)cc4NC(=O)c4ccccn4)n3)cc1)CC2` [Example 9, pyridine-2-carboxylic acid [2-(2-{4-[2-(6,7-dimethoxy-3,4-dihydro-1H-isoquinolin-2-yl)-ethyl]-phenyl}-2H-tetrazol-5-yl)-4,5-dimethoxy-phenyl]-amide], the “ED50^PAC/ED50” value is listed as 3.1.

Take `COc1cc2c(cc1OC)CN(CCc1ccc(-n3nnc(-c4cc(OC)c(OC)cc4NC(=O)c4cccnc4)n3)cc1)CC2` [Example 10, N-[2-(2-{4-[2-(6,7-dimethoxy-3,4-dihydro-1H-isoquinolin-2-yl)-ethyl]-phenyl}-2H-tetrazol-5-yl)-4,5-dimethoxy-phenyl]-nicotinamide]: the “ED50^PAC/ED50” value is 3.0.

Consider `COc1cc2c(cc1OC)CN(CCc1ccc(-n3nnc(-c4cc(OC)c(OC)cc4NC(=O)c4ccncc4)n3)cc1)CC2` [Example 11, N-[2-(2-{4-[2-(6,7-dimethoxy-3,4-dihydro-1H-isoquinolin-2-yl)-ethyl]-phenyl}-2H-tetrazol-5-yl)-4,5-dimethoxy-phenyl]-isonicotinamide], for which the “ED50^PAC/ED50” value turned out to be 3.2.
